Data: ChEMBL document CHEMBL4334495, “Design and Biological Evaluation of m-Xylene Thioether-Stapled Short Helical Peptides Targeting the HIV-1 gp41 Hexameric Coiled-Coil Fusion Complex” (J Med Chem, 2019)
Starred links: 1 amine or outer side, 2 acyl side, 3 side chain; linkers in the order of their positions; H or OH if unused. Positions of bridges follow the written chain, without caps; N, C: chain ends. Non-standard residues stand in square brackets, D forms with d. Residues, ends and D or L forms follow the SMILES beside them. ξ: configuration not given here. mXylylene = c1cc(C[*:1])cc(C[*:2])c1; ξhCys = NC(CCS)C(=O)O

Tests used:
[1] = test system: Human immunodeficiency virus 1; experiment: (§1) Ratio of EC50 for antiviral activity against HIV1 NL4-3 infected in human MT2 cells or CEMx174 5.25 M7 cells in absence of HP23 to EC50 for antiviral activity against HIV1 NL4-3 infected in human MT2 cells or CEMx174 5.25 M7 cells at 10:1 compound to HP23 ratio; assay type: functional
[2] = target: Envelope glycoprotein gp160 (Human immunodeficiency virus 1) (UniProt Q6QLK5); experiment: (§2) Ratio of EC50 for inhibition of HIV1 gp41-induced cell-cell fusion between viral envelope expressing human HL2/3 cells to CD4/CCR5 receptor expressing TZM-bl cells in absence of HP23 to EC50 for inhibition of HIV1 gp41-induced cell-cell fusion between viral envelope expressing human HL2/3 cells to CD4/CCR5 receptor expressing TZM-bl cells at 4:1 compound to HP23 ratio
Envelope glycoprotein gp160 (Human immunodeficiency virus 1), sequence (Q6QLK5 1-814): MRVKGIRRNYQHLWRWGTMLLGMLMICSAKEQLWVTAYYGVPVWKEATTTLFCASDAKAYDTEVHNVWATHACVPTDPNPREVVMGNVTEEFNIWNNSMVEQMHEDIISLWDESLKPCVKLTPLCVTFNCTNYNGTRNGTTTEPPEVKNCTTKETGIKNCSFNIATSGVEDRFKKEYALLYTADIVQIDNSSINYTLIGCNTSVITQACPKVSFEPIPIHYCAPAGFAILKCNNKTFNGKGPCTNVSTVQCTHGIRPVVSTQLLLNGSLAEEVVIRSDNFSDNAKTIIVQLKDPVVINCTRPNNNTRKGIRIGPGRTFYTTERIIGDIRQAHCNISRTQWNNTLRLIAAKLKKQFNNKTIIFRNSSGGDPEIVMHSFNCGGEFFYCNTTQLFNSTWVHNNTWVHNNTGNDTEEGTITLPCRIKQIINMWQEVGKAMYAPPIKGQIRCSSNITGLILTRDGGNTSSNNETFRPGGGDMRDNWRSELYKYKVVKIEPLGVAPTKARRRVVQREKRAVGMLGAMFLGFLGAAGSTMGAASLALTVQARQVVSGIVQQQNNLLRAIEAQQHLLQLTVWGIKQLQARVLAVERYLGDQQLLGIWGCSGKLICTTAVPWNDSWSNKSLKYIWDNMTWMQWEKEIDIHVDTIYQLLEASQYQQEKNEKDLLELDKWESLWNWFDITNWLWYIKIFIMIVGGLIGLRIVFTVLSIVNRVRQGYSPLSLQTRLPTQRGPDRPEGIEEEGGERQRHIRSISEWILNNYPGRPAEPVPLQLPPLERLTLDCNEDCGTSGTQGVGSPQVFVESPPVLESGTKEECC

[3] = test system: Human immunodeficiency virus 1; experiment: Synergistic antiviral activity against R5 tropic HIV-1 subtype-B Bal infected in human MT2 cells or CEMx174 5.25 M7 cells assessed as reduction in p24 Gag protein production by measuring combination index at 6:1 ratio of hCS6ERE to compound measured at 4 days post-infection by ELISA; assay type: functional, HIV-1 group M
[4] = test system: Human immunodeficiency virus 1; experiment: (§3) Ratio of EC50 for antiviral activity against X4 tropic HIV-1 subtype-B 3B infected in human MT2 cells or CEMx174 5.25 M7 cells in absence of HP23 to EC50 for antiviral activity against X4 tropic HIV-1 subtype-B 3B infected in human MT2 cells or CEMx174 5.25 M7 cells at 24:1 compound to HP23 ratio; assay type: functional, HIV-1 group M
[5] = test system: Human immunodeficiency virus 1; experiment: as §1, with “against T20 resistant” for “against”, “NL4-3 harboring with V38E/N42S mutant” for “NL4-3”, “14000:1” for “10:1”; assay type: functional
[6] = target: Envelope glycoprotein gp160 (Human immunodeficiency virus 1) (UniProt Q6QLK5); experiment: as §2, with “1:1” for “4:1”
[7] = test system: Human immunodeficiency virus 1; experiment: as §1, with “against T2635 resistant” for “against”, “LAI harboring Q66R mutant” for “NL4-3”, “to” for “to EC50 for”, “12.5:1 ratio of” for “10:1”, “HP23” for “HP23 ratio”; assay type: functional, M:B_Lai
[8] = test system: Human immunodeficiency virus 1; experiment: Antiviral activity against R5 tropic HIV-1 subtype-B Bal infected in human MT2 cells or CEMx174 5.25 M7 cells assessed as reduction in p24 Gag protein production at 3:1 ratio of compound to HP23 measured at 4 days post-infection by ELISA; assay type: functional, cell-based, HIV-1 group M; details: Human immunodeficiency virus 1, Bal, 96 h
[9] = test system: Human immunodeficiency virus 1; experiment: as §1, with “against T2635 resistant” for “against”, “LAI harboring Q66R mutant” for “NL4-3”, “to” for “to EC50 for”, “25:1 ratio of” for “10:1”, “HP23” for “HP23 ratio”; assay type: functional, M:B_Lai
[10] = test system: Human immunodeficiency virus 1; experiment: Synergistic antiviral activity against X4 tropic HIV-1 subtype-B 3B infected in human MT2 cells or CEMx174 5.25 M7 cells assessed as reduction in p24 Gag protein production by measuring combination index at 24:1 compound to HP23 ratio measured at 4 days post-infection by ELISA; assay type: functional, HIV-1 group M
[11] = test system: Human immunodeficiency virus 1; experiment: (§4) Ratio of EC50 for antiviral activity against R5 tropic HIV-1 subtype-B Bal infected in human MT2 cells or CEMx174 5.25 M7 cells in absence of HP23 to EC50 for antiviral activity against R5 tropic HIV-1 subtype-B Bal infected in human MT2 cells or CEMx174 5.25 M7 cells at 24:1 compound to HP23 ratio; assay type: functional, HIV-1 group M
[12] = test system: Human immunodeficiency virus 1; experiment: as §3, with “hCS6ERE” for “HP23”, “12:1 ratio of hCS6ERE to” for “24:1”, “compound” for “compound to HP23 ratio”; assay type: functional, HIV-1 group M
[13] = test system: Human immunodeficiency virus 1; experiment: Ratio of EC50 for antiviral activity against HIV1 NL4-3 infected in human MT2 cells or CEMx174 5.25 M7 cells in absence of hCS6ERE to EC50 for antiviral activity against HIV1 NL4-3 infected in human MT2 cells or CEMx174 5.25 M7 cells at 20:1 hCS6ERE to compound ratio; assay type: functional
[14] = test system: Human immunodeficiency virus 1; experiment: Antiviral activity against R5 tropic HIV-1 subtype-B Bal infected in human MT2 cells or CEMx174 5.25 M7 cells assessed as reduction in p24 Gag protein production at 3:1 ratio of hCS6ERE to compound measured at 4 days post-infection by ELISA; assay type: functional, cell-based, HIV-1 group M; details: Human immunodeficiency virus 1, Bal, 96 h
[15] = test system: Human immunodeficiency virus 1; experiment: as §4, with “hCS6ERE” for “HP23”, “24:1 ratio of hCS6ERE to” for “24:1”, “compound” for “compound to HP23 ratio”; assay type: functional, HIV-1 group M
[16] = test system: Human immunodeficiency virus 1; experiment: Antiviral activity against X4 tropic HIV-1 subtype-B 3B infected in human MT2 cells or CEMx174 5.25 M7 cells assessed as reduction in p24 Gag protein production at 24:1 ratio of hCS6ERE to compound measured at 4 days post-infection by ELISA; assay type: functional, cell-based, HIV-1 group M; details: Human immunodeficiency virus 1, 3B, 96 h
[17] = test system: Human immunodeficiency virus 1; experiment: Antiviral activity against R5 tropic HIV-1 subtype-B Bal infected in human MT2 cells or CEMx174 5.25 M7 cells assessed as reduction in p24 Gag protein production at 12:1 ratio of hCS6ERE to compound measured at 4 days post-infection by ELISA; assay type: functional, cell-based, HIV-1 group M; details: Human immunodeficiency virus 1, Bal, 96 h
[18] = target: Envelope glycoprotein gp160 (Human immunodeficiency virus 1) (UniProt Q6QLK5); experiment: as §2, with “4:1 ratio of hCS6ERE to” for “4:1”, “compound” for “compound to HP23 ratio”
[19] = target: Envelope glycoprotein gp160 (Human immunodeficiency virus 1) (UniProt Q6QLK5); experiment: as §2, with “2:1 ratio of hCS6ERE to” for “4:1”, “compound” for “compound to HP23 ratio”
[20] = test system: Human immunodeficiency virus 1; experiment: Ratio of EC50 for antiviral activity against T20 resistant HIV1 NL4-3 harboring with V38E/N42T mutant infected in human MT2 cells or CEMx174 5.25 M7 cells in absence of hCS6ERE to EC50 for Antiviral activity against T20 resistant HIV1 NL4-3 harboring with V38E/N42T mutant infected in human MT2 cells or CEMx174 5.25 M7 cells at 150:1 hCS6ERE to compound ratio; assay type: functional
[21] = test system: Human immunodeficiency virus 1; experiment: Antiviral activity against T20 resistant HIV1 NL4-3 harboring with V38E/N42S mutant infected in human MT2 cells or CEMx174 5.25 M7 cells assessed as reduction in p24 Gag protein production at 7000:1 hCS6ERE to compound ratio measured at 4 days post-infection by ELISA; assay type: functional, organism-based
[22] = test system: Human immunodeficiency virus 1; experiment: Antiviral activity against T20 resistant HIV1 NL4-3 harboring with V38E/N42T mutant infected in human MT2 cells or CEMx174 5.25 M7 cells assessed as reduction in p24 Gag protein production at 300:1 hCS6ERE to compound ratio measured at 4 days post-infection by ELISA; assay type: functional, organism-based

## CC[C@H](C)[C@H](NC(C)=O)C(=O)N[C@@H](CCC(=O)O)C(=O)N[C@@H](CCC(=O)O)C(=O)N[C@@H](CC(C)C)C(=O)N[C@H](C(=O)NC1CCSCc2cccc(c2)CSCCC(C(=O)N[C@@H](CCC(N)=O)C(=O)N[C@@H](CCC(N)=O)C(=O)N[C@@H](CCCNC(=N)N)C(=O)N[C@@H](CCCCN)C(=O)N[C@@H](CC(N)=O)C(=O)N[C@@H](CCC(=O)O)C(=O)N[C@@H](CCC(=O)O)C(=O)N[C@@H](C)C(=O)N[C@@H](CC(C)C)C(=O)N[C@@H](CCCNC(=N)N)C(=O)N[C@@H](CCC(=O)O)C(=O)N[C@@H](CC(C)C)C(N)=O)NC(=O)[C@H](CCC(N)=O)NC(=O)[C@H](C)NC(=O)[C@H](C)NC1=O)[C@@H](C)CC (some centres not stated) (Ac-IEELI[ξhCys]AAQ[ξhCys]QQRKNEEALREL-NH2; linker 6-10 via mXylylene)
[1]
  Ratio EC50: 2.5
[2]
  Ratio EC50: 2.9
[3]
  CI: 0.8
[4]
  Ratio EC50: 1.6
[5]
  Ratio EC50: 2.2
[6]
  Ratio EC50: 2
[7]
  Ratio EC50: 3.8
[8]
  EC50: 4.1 nM
[9]
  Ratio EC50: 2.2
[10]
  CI: 0.9
[11]
  Ratio EC50: 2.6

## H-EMTWEEWEKKIEEYTKKIEEILK-OH
[12]
  Ratio EC50: 2.8
[13]
  Ratio EC50: 4.9
[14]
  EC50: 1.4 nM
[15]
  Ratio EC50: 5.2
[16]
  EC50: 0.7 nM
[17]
  EC50: 0.5 nM
[18]
  Ratio EC50: 6.2
[19]
  Ratio EC50: 2
[20]
  Ratio EC50: 1.9
[21]
  EC50: 0.4 nM
[22]
  EC50: 1.4 nM
